Laboratory results as given in patent US9969701B2, “Salts and co-crystals of lesinurad” (CRYSTAL PHARMATECH, INC., priority 2013, dated 2018).
In brackets after ≈: the same amount, converted by molar mass.

Tests used:
[1] = Kinetic solubility in bio-relevant media (FaSSIF, FeSSIF), HPLC quantification; format: physicochemical; conditions: thermodynamic from solid, RT; for solubility at 1 h: time point 1 h; for solubility at 4 h: time point 4 h; for solubility at 24 h: time point 24 h
Protocol: 2. Add 3 mL of bio-relevant medium into each vial.
3. Cap the vials and keep all the suspension samples stirring at RT (room temperature) using a rolling incubator at a rate of 25 r/min.
4. Sample at 1 h, 4 h and 24 h respectively. About 0.6 mL aliquot of the suspension is transferred per time from solubility vial into a centrifuge filtration tube (pore size of 0.45 μm).
5. Centrifuge filtration tubes at a rate of 8500 rpm for 3 minutes at RT, collect 0.2 mL of supernatant for HPLC quantification determination and collect the rest of solution for pH measurement, and separate the solid for XRPD characterization.

gout patients = gout patients who did not get benefit from allopurinol and febuxostat; lesinurad alone; cited from earlier work
[2] = Stability assessment under stress conditions (solid form by XRPD after storage); format: physicochemical; conditions: 14 days; for Stability under stress conditions: 25° C./60% RH and 40° C./75% RH; for Final form: XRPD
Protocol: Analytical Instrument: Panalytical Empyrean. The X-ray powder diffractogram was determined by mounting a sample of the crystalline material on a Si single crystal low-background holder and spreading out the sample into a thin layer with the aid of a microscope slide. The 2θ position was calibrated against Panalytical 640 Si powder standard. The sample irradiated with X-rays generated by a copper long-fine focus tube operated at 45 kV and 40 mA with a wavelength of Kα1=1.540589 angstroms and Kα2=1.544426 angstroms (Kα1/Kα2 intensity ratio is 0.50). The collimated X-ray source was passed through a programmed divergence slit set at 10 mm and the reflected radiation directed through a 5.5 mm anti-scattering slit. The sample was exposed for 16.3 seconds per 0.013° 2-theta increment (continuous scan mode) over the range 3 degrees to 40 degrees 2-theta in theta-theta mode. The running time was 3 minutes and 57 seconds. The instrument was equipped with an RTMS detector (X'Celerator). Control and data capture was accomplished by means of a Dell Optiplex 780 XP operating with data collector software.
The solid samples were analyzed by […].
The solid samples were analyzed by XRPD.

[3] = Hygroscopicity assessment by dynamic vapor sorption (DVS); format: physicochemical
Protocol: Dynamic Vapor Sorption (DVS) was measured via a SMS (Surface Measurement Systems) DVS Intrinsic. The relative humidity at 25° C. was calibrated against deliquescence point of LiCl, Mg(NO3)2 and KCl. Typical Parameters for DVS test are listed below.
Gas and flow rate: N2, 200 mL/min

[4] = FaSSIF (fasted state simulated intestinal fluid), FaSSIF
[5] = FeSSIF (fed state simulated intestinal fluid), FeSSIF

SMILES | Stability under stress conditions [2] | Final form ([2]; stored under 25° C./60% RH) | Final form ([2]; stored under 40° C./75% RH) | Water uptake under 80% RH ([3]; 25° C., 80% RH) | Water uptake under 95% RH ([3]; 25° C.) | also measured
O=C(O)CSc1nnc(Br)n1-c1ccc(C2CC2)c2ccccc12 [lesinurad freeacid, 2-((5-bromo-4-(4-cyclopropylnaphthalen-1-yl)-4H-1,2,4-triazol-3-yl)thio)acetic acid] |  |  |  |  |  | solubility at 1 h [1, 4]: 2890 µg/mL (≈ 7.15 mM); solubility at 4 h [1, 4]: 3580 µg/mL (≈ 8.86 mM); solubility at 24 h [1, 4]: 3000 µg/mL (≈ 7.42 mM); solubility at 1 h [1, 5]: 1510 µg/mL (≈ 3.72 mM); solubility at 4 h [1, 5]: 2140 µg/mL (≈ 5.29 mM); solubility at 24 h [1, 5]: 1930 µg/mL (≈ 4.78 mM); Serum levels of uric acid (gout patients): significantly reduced
O=C(O)CSc1nnc(Br)n1-c1ccc(C2CC2)c2ccccc12.O=C(O)[C@@H]1CCCN1 | stable | co-crystal | co-crystal |  |  | 
O=C([O-])CSc1nnc(Br)n1-c1ccc(C2CC2)c2ccccc12.O=C([O-])CSc1nnc(Br)n1-c1ccc(C2CC2)c2ccccc12.[Ca+2] [calcium salt Form A] | stable | calcium salt Form A | calcium salt Form A | 0.15% | 0.33% | Hygroscopicity ([3]; 80% RH, 25° C., European pharmacopoeia criteria): almost not hygroscopic; Deliquescence under high humidity conditions ([3]; high humidity): does not deliquesce
O=C([O-])CSc1nnc(Br)n1-c1ccc(C2CC2)c2ccccc12.[Na+] [sodium salt Form A, reference compound] |  |  |  | 25.11% | 32.13% | 
